Data as given in patent US4101381A, “Method and reagent for the determination of substances forming hydrogen peroxide” (Boehringer Mannheim GmbH, priority 1976, dated 1978).
≈ marks a conversion by molar mass, not a printed value. Read-outs that look alike come from different tables or passages of the source.

Legend:
[1] = solubility in an aqueous medium at pH 1; assay type: physicochemical
[2] = prior-art method; cited from earlier work

| Structure (SMILES) | solubility ([1]; read-out: solubility in an aqueous medium) [mg/mL] | stability [2] | solubility ([1]; read-out: solubility) [mg/mL] |
| --- | --- | --- | --- |
| Cn1c(=NN)sc2ccccc21 [MBTH, 3-methylbenzothiazolonehydrazone] | 48 (≈ 268 mM) | low stability | – |
| Cn1c(=NN)sc2cc(S(=O)(=O)O)ccc21 [MBTH sulfonate, 3-methyl-2-(sulfonyl)-benzothiazolonehydrazone] | – | – | 6 |
